Laboratory results: patent US5268389A, “Thiocarboxylate ester compounds compositions containing the same” (priority 1990, dated 1993)
Where “and” joins values, the source holds several entries; their conditions need not be identical. Equal values may be shown once.

Assays:
Type in all cases: cell-based
[1] = test system: HIV; assay: microbe, parasite or virus in culture; conditions: CEM cells, free HIV, read-out: Activity of Anti-HIV Compounds (EC50), CEMV
Experimental: (§1) The compounds of Examples were tested for anti-AIDS activity by subjecting them to standard National Cancer Institute ("NCI") in vitro screening procedures. In carrying out each test, two blanks were run. In the first blank, HIV and a culture of a standard human cell line were incubated together to measure the infectivity of the virus. The viability of the cells was measured after holding for six or seven days. In an "effective" test, most cells were infected before the holding period was complete.
In the second blank, the cell line culture and the compound being tested (but not virus) were incubated together to measure the toxicity of the drug to the cellline. The viability of the cells was measured as a function of concentration of the compound, after holding for seven days. Typically, the cells survive at low compound concentrations, but at some higher concentration, toxicity of the compound is manifested and the cells die. The concentration of the test compound that results in 50% inhibition of cell growth is defined as the IC50.
(§2) Finally, the protective effects of the test compounds were measured. Each cell culture and test compound were incubated with the virus and the viability of the cells was measured as a function of compound concentration after holding for six or seven days. If the compound is active in protecting the cells against the virus, there is typically low cell viability until an effective concentration of the test compound is reached. At this point, cell viability increases steadily toward 100% unless the toxic effect of the compound (as measured in the second blank) takes effect. The concentration of the test compound that results in 50% "control," i.e., a 50% reduction of the viral cytopathic effect, is defined as the EC 50. The therapeutic index TI50 is calculated as IC50/EC50.
(§3) Values of test compound concentrations required for between 20 and 50% reduction of the viral cytopathic effect can also be determined. Such compounds are classified as moderately active.
(§4) The compounds were tested to determine their reduction of HIV cytopathic effect on the human cell lines CEM and MT2. Tests were done by innoculating these cell lines either with free HIV (V) or with a virus Previously cultured with host cells (C). Thus, in Table III the designation CEMV means CEM line cells innoculated with free virus and MT2C means MT2 cells innoculated with cultured viral infected MT2 cells. In some cases the compound was also tested on a cell line together with a sub-effective amount of the known HIV viricide AZT. This is done to test possible synergistic effects. Such a test on the CEM line is denoted CEMZ.
(§5) 1) T4 lymphocytes (CEM cell line) are exposed to HIV at a virus to cell ratio of approximately 0.05 and plated along with non-infected control cells in 96-well microtiter plates.
(§6) 2) Each candidate agent is dissolved in dimethyl sulfoxide (unless otherwise indicated), then diluted 1:200 in cell culture medium. Further dilutions (five-fold) are prepared before adding to an equal volume of medium containing either infected or noninfected cells.
(§7) 3) Cultures are incubated at 37° C. in a 5% carbon dioxide atmosphere for seven days (if six days the CEMV test is identified as CEM-6).
(§8) 4) The tetrazolium salt, XTT, is added to all wells, and cultures are incubated to allow formazan color development by viable cells.
(§9) 5) Individual wells are analyzed spectrophotometrically to quantity formazan production, and in addition are viewed microscopically for detection of viable cells and confirmation of protective activity.
(§10) 6) Drug-treated virus-infected cells are compared with drug-treated non-infected cells and with other appropriate controls (untreated infected and untreated non-infected cells, drug-containing wells without cells, etc.) on the same plate.
7) A determination of activity is made. […]

[2] = test system: HIV; assay: Reduction of HIV cytopathic effect, CEM-6 (CEMV test, six days); conditions: CEM cells; for EC50: free HIV, read-out: Activity of Anti-HIV Compounds (EC50), CEM-6; for Activity class of Anti-HIV Compounds, CEM-6: inhibition of viral cytopathic effect, 8640 min
Experimental: as §1, §2, §3, §4, §5, §6, §7, §8, §9, §10

[3] = test system: HIV; assay: Reduction of HIV cytopathic effect, CEM-IW protocol; conditions: inhibition of viral cytopathic effect, asterisk: CEMIW protocol
Experimental: as §1, §2, §3, §4
The aforementioned identifiers are used when a batch was prepared and samples inserted into the wells. In procedures calling for the addition of the drug (or no drug) and the CEM uninfected cells to each well, followed by the subsequent addition of the HIV virus, the protocol is designated as CEM-IW.
as §8, §9, §10
Asterisks indicate the CEMIW protocol.

[4] = Human immunodeficiency virus 1, CCRF-CEM
[5] = Human immunodeficiency virus 1, CCRF-CEM, 144 h

Compound	EC50 [2]	Activity class of Anti-HIV Compounds, CEM-6 [2]	other results
CC(C)OC(=O)c1cc(NC(=O)c2c(Br)c(Br)c(Br)c(Br)c2C(=O)O)ccc1Cl [Compound 21, 2,3,4,5-Tetrabromo-6-[[[4-chloro-3-[(1-methylethoxy)carbonyl]phenyl]amino]carbonyl]benzoic acid]	–	–	EC50 [1]: 36200 nM; EC50 [1, 4]: 58200 nM
CC1=C(C(=O)Nc2ccc(Cl)c(C(=O)OC(C)C)c2)SCCS1 [Compound 27, 1-Methylethyl 2-chloro-5[[(5,6-dihydro-3-methyl-1,4-dithiin-2-yl)carbonyl]amino]benzoate]	–	–	EC50 [1]: 810 nM; EC50 [1, 4]: 1380 nM
CC(C)OC(=O)c1cc(NC(=O)C(C)(C)C)c(F)cc1Cl [Compound 30, 1-Methylethyl 2-chloro-5-[(2,2-dimethyl-1-oxopropyl)amino]-4-fluorobenzoate]	–	–	EC50 [1, 4]: 42700 nM
CC(C)OC(=O)c1cc(NC(=S)OC(C)C)ccc1Cl [Compound 32, 1-Methylethyl 2-chloro-5-[[(1-methylethoxy)thioxomethyl]amino]benzoate]	–	–	EC50 [1]: 59 nM and 30 nM; EC50 [1, 4]: 35 nM
CC(C)OC(=O)c1cc(NC(=S)OC2CCCCC2)ccc1Cl [Compound 44]	1340 nM	–	EC50 [2, 5]: 760 nM
CC(C)OC(=O)c1cc(NC(=S)OCC2CC2)ccc1Cl [Compound 46]	53 nM	–	–
CC(C)OC(=O)c1cc(NC(=S)N(C)C)ccc1Cl [Compound 48]	–	MA (moderate activity (MA), that is, inhibition between approximately 20 and 50%)	–
CC(C)NC(=S)Nc1ccc(Cl)c(C(=O)OC(C)C)c1 [Compound 49]	–	MA (moderate activity (MA), that is, inhibition between approximately 20 and 50%)	–
COCCOC(=O)c1cc(NC(=O)C2=C(C)OCCS2)ccc1Cl [Compound 69]	–	–	EC50 [2, 5]: 340 nM
CCCC1=C(C(=O)Nc2ccc(Cl)c(C(=O)OCC)c2)SCCO1 [Compound 70, Ethyl 2-chloro-5-[[(5,6-dihydro-2-propyl-1,4-oxathiin-3-yl)carbonyl]amino]benzoate]	210 nM and 230 nM	–	EC50 [2, 5]: 170 nM
CCCC1=C(C(=O)Nc2ccc(Cl)c(C(=O)OC)c2)SCCO1 [Compound 71, Methyl 2-chloro-5-[[(5,6-dihydro-2-propyl-1,4-oxathiin-3-yl)-carbonyl]amino]benzoate]	1830 nM and 1620 nM	–	EC50 [2, 5]: 990 nM
CC1=C(C(=O)Nc2ccc(F)c(C(=O)OC(C)C)c2)SCCO1 [Compound 72]	590 nM and 340 nM	–	EC50 [2, 5]: 540 nM
CC1=C(C(=O)Nc2ccc(C)c(C(=O)OC(C)C)c2)SCCO1 [Compound 73]	580 nM	–	EC50 [2, 5]: 410 nM
CCC1=C(C(=O)Nc2ccc(Cl)c(C(=O)OCC(C)C)c2)SCCO1 [Compound 74, 2-Methylpropyl 2-chloro-5-[[(2-ethyl-5,6-dihydro-1,4-oxathiin-3-yl)carbonyl]amino]benzoate]	–	–	EC50 [2, 5]: 38900 nM
CCCOC(=O)c1ccc(C)c(NC(=O)C2=C(C)OCCS2)c1 [Compound 75, Propyl 3-[[(5,6-dihydro-2-methyl-1,4-oxathiin-3-yl)carbonyl]amino]-4-methylbenzoate]	908 nM	–	EC50 [2, 5]: 1060 nM
CCCCOC(=O)c1cccc(NC(=O)C2=C(C)OCCS2)c1 [Compound 76]	–	MA (moderate activity (MA), that is, inhibition between approximately 20 and 50%)	–
COCCOCCOC(=O)c1cc(NC(=O)C2=C(C)OCCS2)ccc1Cl [Compound 78, 2-(2-Methoxyethoxy)ethyl 2-chloro-5-[[(5,6-dihydro-2-methyl-1,4-oxathiin-3-yl)carbonyl]amino]benzoate]	–	MA (moderate activity (MA), that is, inhibition between approximately 20 and 50%)	Activity class of Anti-HIV Compounds, CEM-IW [3]: MA (moderate activity (MA), that is, inhibition between approximately 20 and 50%)

Compound	EC50 [2]	Activity class of Anti-HIV Compounds, CEM-6 [2]	other results
Cc1occc1C(=O)Nc1ccc(Cl)c(C(=O)OC(C)C)c1 [Compound 79, 1-Methylethyl 2-chloro-5-[[(2-methyl-3-furanyl)carbonyl]amino]benzoate]	3300 nM	–	–
Cc1coc(C)c1C(=O)Nc1ccc(Cl)c(C(=O)OC(C)C)c1 [Compound 80, 1-Methylethyl 2-chloro-5-[[(2,4-dimethyl-3-furanyl)carbonyl]amino]benzoate]	2300 nM	–	–
Cc1cc(C(=O)Nc2ccc(Cl)c(C(=O)OC(C)C)c2)c(C)o1 [Compound 81, 1-Methylethyl 2-chloro-5-[[(2,5-dimethyl-3-furanyl)carbonyl]amino]benzoate]	–	–	EC50 [2, 5]: 420 nM
COCCOC(=O)c1cc(NC(=O)c2ccccc2)ccc1Cl [Compound 84, 2-Methoxyethyl 5-[benzoylamino)-2-chlorobenzoate]	–	MA (moderate activity (MA), that is, inhibition between approximately 20 and 50%)	–
CCOC(=O)c1cc(NC(=O)c2ccccc2OC)ccc1Cl [Compound 86, Ethyl 2-chloro-5-[(2-methoxybenzoyl)amino]benzoate]	1360 nM	–	EC50 [2, 5]: 1740 nM
CCOC(=O)c1cc(NC(=O)c2ccccc2)ccc1Cl [Compound 87, Ethyl 5-(benzoylamino)-2-chlorobenzoate]	–	MA (moderate activity (MA), that is, inhibition between approximately 20 and 50%)	–
CC(C)OC(=O)c1cc(NC(=O)c2ccccc2Cl)ccc1Cl [Compound 90, 1-Methylethyl 2-chloro-5-[(2-chlorobenzoyl)amino]benzoate]	–	MA (moderate activity (MA), that is, inhibition between approximately 20 and 50%)	–
CC(C)=CC(=O)Nc1ccc(Cl)c(C(=O)OC(C)C)c1 [Compound 91, 1-Methylethyl 2-chloro-5-[(3-methyl-1-oxo-2-butenyl)amino]-benzoate]	–	MA (moderate activity (MA), that is, inhibition between approximately 20 and 50%)	–
C#CCOC(=O)Nc1ccc(Cl)c(C(=O)OC(C)C)c1 [Compound 92, 1-Methylethyl 2-chloro-5-[((2-propynyloxy)carbonyl]amino]benzoate]	–	MA (moderate activity (MA), that is, inhibition between approximately 20 and 50%)	–
Cc1nc(C(=O)Nc2ccc(Cl)c(C(=O)OC(C)C)c2)c(-c2ccccc2)o1 [Compound 103]	–	MA (moderate activity (MA), that is, inhibition between approximately 20 and 50%)	–
CC(C)OC(=O)c1cc(NC(=O)c2cc3ccccc3[nH]2)ccc1Cl [Compound 104]	–	MA (moderate activity (MA), that is, inhibition between approximately 20 and 50%)	–
Cc1nc(-c2ccccc2)c(C(=O)Nc2ccc(Cl)c(C(=O)OC(C)C)c2)o1 [Compound 105]	–	MA (moderate activity (MA), that is, inhibition between approximately 20 and 50%)	–
Cc1ccsc1C(=O)Nc1ccc(Cl)c(C(=O)OC(C)C)c1 [Compound 106]	2200 nM	–	–
CC(C)OC(=O)c1cc(NC(=O)C2=CCCCC2)ccc1Cl [Compound 107]	–	MA (moderate activity (MA), that is, inhibition between approximately 20 and 50%)	–
Cc1cc(C)c(C(=O)Nc2ccc(Cl)c(C(=O)OC(C)C)c2)s1 [Compound 108]	–	MA (moderate activity (MA), that is, inhibition between approximately 20 and 50%)	–
CC(C)OC(=O)c1cc(NC(=O)c2ccsc2)ccc1Cl [Compound 109]	–	MA (moderate activity (MA), that is, inhibition between approximately 20 and 50%)	–
Ethyl 5-[(2-aminobenzoyl)amino]-2-chlorobenzoate [Compound 88]	5700 nM and 3100 nM	–	–
